Test results taken from BindingDB's records for doi:10.7270/Q2M32T6M (Vanderbilt Screening Center for GPCRs, Ion Channels and …, 2009).

Target: T1, Solute carrier family 12 member 5 (Homo sapiens, UniProt Q9H2X9)
T1 sequence (Q9H2X9 whole entry): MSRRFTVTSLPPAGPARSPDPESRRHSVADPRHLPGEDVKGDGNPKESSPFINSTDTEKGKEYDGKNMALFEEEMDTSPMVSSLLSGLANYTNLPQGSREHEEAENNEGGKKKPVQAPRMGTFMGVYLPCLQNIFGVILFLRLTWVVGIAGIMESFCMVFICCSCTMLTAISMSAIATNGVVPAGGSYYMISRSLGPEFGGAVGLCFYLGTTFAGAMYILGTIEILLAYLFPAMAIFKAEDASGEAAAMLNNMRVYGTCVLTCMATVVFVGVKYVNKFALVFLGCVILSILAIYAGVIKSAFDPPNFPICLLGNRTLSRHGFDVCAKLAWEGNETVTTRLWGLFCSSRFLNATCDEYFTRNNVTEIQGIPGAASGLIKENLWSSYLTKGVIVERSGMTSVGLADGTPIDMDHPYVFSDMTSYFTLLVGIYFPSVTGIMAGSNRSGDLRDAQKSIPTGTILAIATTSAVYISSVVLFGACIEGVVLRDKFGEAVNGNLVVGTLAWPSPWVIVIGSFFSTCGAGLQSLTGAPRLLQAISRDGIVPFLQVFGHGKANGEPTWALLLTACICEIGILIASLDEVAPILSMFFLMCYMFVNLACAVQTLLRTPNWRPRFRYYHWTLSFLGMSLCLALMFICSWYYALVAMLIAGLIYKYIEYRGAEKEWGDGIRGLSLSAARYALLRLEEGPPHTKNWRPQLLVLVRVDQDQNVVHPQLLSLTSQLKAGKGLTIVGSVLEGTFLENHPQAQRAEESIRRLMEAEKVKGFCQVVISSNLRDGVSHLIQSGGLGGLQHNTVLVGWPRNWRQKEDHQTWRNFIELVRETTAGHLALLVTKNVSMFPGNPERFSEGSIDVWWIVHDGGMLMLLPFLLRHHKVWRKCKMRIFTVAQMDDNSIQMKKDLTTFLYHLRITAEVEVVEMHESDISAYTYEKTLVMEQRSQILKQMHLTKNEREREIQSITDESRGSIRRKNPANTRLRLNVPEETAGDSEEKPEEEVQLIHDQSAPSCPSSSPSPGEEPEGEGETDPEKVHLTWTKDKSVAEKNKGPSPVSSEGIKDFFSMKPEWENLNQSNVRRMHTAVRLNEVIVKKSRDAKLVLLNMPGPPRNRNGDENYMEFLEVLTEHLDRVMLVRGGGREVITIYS
Experiment: concentration-response of KCC2 transport modulators – cell-based, HEK293 KCC2, FluoZin-2 fluorescence, dose response (AID 1736)

[1] = inactive by the depositor's call

| EC50 | EC50 [1] | SMILES |
| --- | --- | --- |
|  | 24.9 µM | CCOC(=S)N=C(NS(=O)(=O)c1ccc(C)cc1)c1ccccc1 [MLS000579749] |
|  | 296 µM | O=C(CCc1ccccc1)NC(=S)Nc1cccc(Br)c1 [MLS000583293] |
| 45.5 µM |  | CCn1c(SCC(=O)Nc2ccc(Cl)cc2)nc2nc3c(cc2c1=O)CCCC3 [MLS000589154] |
| 1.68 µM |  | O=C(CSc1ccc(-c2cccs2)nn1)Nc1ccccc1F [MLS000621184] |
| 10 µM |  | O=C(C=Cc1ccccc1)CC(=O)c1ccccc1O [MLS000627068] |
| 0.27 µM |  | CN(CC(=O)N1CCN(Cc2ccccc2)CC1)S(=O)(=O)c1cccc2nsnc12 [MLS000674627] |
|  | 101 µM | O=C(Nc1cc(S(=O)(=O)N2CCCCC2)ccc1Cl)c1ccccc1NS(=O)(=O)c1ccc(F)cc1 [MLS000707627] |
| 827 µM |  | O=C(Nc1ccc2oc(-c3ccccc3F)nc2c1)c1ccco1 [MLS000709180] |
| 8.13 µM |  | O=C(NC1CCCC1)C(c1ccncc1)N(Cc1ccco1)C(=O)c1ccc(-c2ccccc2)[nH]1 (stereo not given) [MLS000718066] |
| 38.4 µM |  | CC(=O)NCCC(=O)N1CCCC(CNC(=O)c2ccc(-c3ccccc3)cc2)C1 (stereo not given) [MLS000733794] |
| 0.189 µM |  | O=C(NNc1nc(-c2ccccc2)cs1)c1cccs1 [MLS000858987] |
|  | 7.95 µM | Sc1ccc2ccccc2n1 [MLS001006012] |
| 2.04 µM |  | CCC(CC)NC(=O)CSc1nnc(-c2c[nH]c3ccccc23)o1 [MLS001017505] |
| 38.6 µM |  | COc1ccc(N(CC(=O)Nc2cccc(C)c2C)S(=O)(=O)c2c(C)n[nH]c2C)cc1 [N-(2,3-dimethylphenyl)-2-[(3,5-dimethyl-1H-pyrazol-4-yl)sulfonyl-(4-methoxyphenyl)amino]ethanamide] |
| 1.46 µM |  | CC(=NNC(=O)c1ccc(Cl)c(Cl)c1)c1ccc(Br)s1 [N-[1-(5-bromo-2-thiophenyl)ethylideneamino]-3,4-dichlorobenzamide] |
| 23.4 µM |  | CCOC(=O)c1sc(Nc2nc3c(OC)cccc3s2)nc1C [SMR000027213] |
|  | 181 µM | O=c1c2ccccc2[nH]c(=S)n1CCN1CCC(=C(c2ccc(F)cc2)c2ccc(F)cc2)CC1 [SMR000058550] |
|  | 29 µM | O=C(/C=C/c1cccs1)Nc1scc(-c2ccccc2)c1C(=O)O [SMR000364116] |

More lines, now with the values behind:

| SMILES | EC50 | EC50 [1] |
| --- | --- | --- |
| Cc1nn(-c2ccc(F)cc2)c(C)c1NS(=O)(=O)c1ccc2ccccc2c1 [MLS000565745] | 2.64 µM |  |
| CNC(=O)/C(=C\C=C\c1ccccc1)NC(=O)c1ccc([N+](=O)[O-])cc1 [MLS000570424] | 3.38 µM |  |
| O=C(NCc1nc(-c2ccccc2)cs1)c1ccccc1 [MLS000661971] | 544 µM |  |
| O=C(NC(=S)Nc1cccc2cccnc12)c1cccs1 [MLS000688132] | 0.156 µM |  |
| CC(=O)NCC1CCCN(c2nc3nonc3nc2N(C)Cc2ccccc2)C1 (stereo not given) [MLS000731683] | 5.1 µM |  |
| CCc1cc(C(=O)N2CCCC(CNC(=O)c3ccc(-c4ccccc4)cc3)C2)no1 (stereo not given) [MLS000731765] | 3 µM |  |
| CSCCC(=O)N1CCCC(CNC(=O)c2ccc(-c3ccccc3)cc2)C1 (stereo not given) [MLS000733867] | 21 µM |  |
| O=C(NNc1nc(-c2ccc(F)cc2)cs1)c1ccccc1 [MLS000763429] | 0.928 µM |  |
| CNc1ccc2oc(C[C@H]3O[C@@]4(CC[C@H]3C)O[C@H]([C@H](C)C(=O)c3ccc[nH]3)[C@H](C)C[C@H]4C)nc2c1C(=O)O [MLS001056783] | 9.96 µM |  |
| CNC(=O)C(=O)Nc1nc(C23CC4CC(CC(C4)C2)C3)cs1 [N'-[4-(1-adamantyl)-1,3-thiazol-2-yl]-N-methyl-ethanediamide] |  | 22.6 µM |
| CCOc1ccc(C(C(=O)NC2CCCC2)N(CCCO)C(=O)c2ccc(-c3ccccc3)[nH]2)cc1 (stereo not given) [N-[2-(cyclopentylamino)-1-(4-ethoxyphenyl)-2-oxoethyl]-N-(3-hydroxypropyl)-5-phenyl-1H-pyrrole-2-carboxamide] |  | 843 µM |
| CC(C)(C)NC(=O)C(c1ccncc1)N(Cc1ccco1)C(=O)c1ccc(-c2ccccc2)[nH]1 (stereo not given) [N-[2-(tert-butylamino)-2-oxo-1-pyridin-4-ylethyl]-N-(furan-2-ylmethyl)-5-phenyl-1H-pyrrole-2-carboxamide] | 19.1 µM |  |
| CC(C)(C)NC(=O)C(c1cccs1)N(CC1CCCO1)C(=O)c1ccc(-c2ccccc2)[nH]1 (stereo not given) [N-[2-(tert-butylamino)-2-oxo-1-thiophen-2-ylethyl]-N-(2-oxolanylmethyl)-5-phenyl-1H-pyrrole-2-carboxamide] | 2.31 µM |  |
| O=C(NN1C(=O)/C(=C/c2nc3ccccc3[nH]2)SC1=S)c1ccccc1Cl [N-{5-[1-(1H-Benzoimidazol-2-yl)-meth-(Z)-ylidene]-4-oxo-2-thioxo-thiazolidin-3-yl}-2-chloro-benzamide] | 0.128 µM |  |
| c1ccc(-c2nnc(Sc3ncnc4c3cnn4-c3ccccc3)[nH]2)cc1 [SMR000019566] | 6.74 µM |  |
| O=C(CSc1nccc(=O)[nH]1)N1CCc2ccccc2C1 [SMR000124078] | 17.1 µM |  |
| CC(C)NC(=S)NNC1=c2cc(C(C)C)ccc2=NC1=O [SMR000242097] | 5.86 µM |  |
| CC(=NNC(=S)Nc1c(C)cccc1C)c1cc2ccccc2o1 [SMR000260555] | 2.79 µM |  |
| Cc1nc(SCc2ccc(F)cc2)c([N+](=O)[O-])[nH]1 [SMR000271028] | 4.66 µM |  |
| Cc1ccc(C2=CSC3=NNC4(CCCCC4)NN23)cc1 [SMR000306481] | 2.22 µM |  |
| CN(C)S(=O)(=O)c1ccc(Cl)c(C(=O)Nc2nc3ccccc3[nH]2)c1 [SMR000370637] | 4.52 µM |  |
| Oc1c(Br)cc(Br)cc1C=NNC(=S)N[C@H]1CC2C=CC1C2 (stereo not given in full) [SMR000455893] | 12.7 µM |  |
